The target in data set [1] is T1, G-protein coupled bile acid receptor 1 (Homo sapiens, UniProt Q8TDU6).
T1 sequence (Q8TDU6 whole entry): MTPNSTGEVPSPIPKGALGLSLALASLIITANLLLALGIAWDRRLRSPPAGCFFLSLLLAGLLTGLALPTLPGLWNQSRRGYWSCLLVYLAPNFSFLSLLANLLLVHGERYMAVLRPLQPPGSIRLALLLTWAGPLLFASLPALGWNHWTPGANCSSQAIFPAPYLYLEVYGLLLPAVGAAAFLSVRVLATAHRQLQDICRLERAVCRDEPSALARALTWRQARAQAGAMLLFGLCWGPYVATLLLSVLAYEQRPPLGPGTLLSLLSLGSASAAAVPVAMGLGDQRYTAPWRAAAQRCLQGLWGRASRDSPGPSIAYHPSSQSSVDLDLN
The data set can be described thus: Agonist activity at human TGR5 expressed in human HEK293 cells co-expressing CRE-driven luciferase reporter gene assessed as luciferase activity incubated for 5.5 hrs by Steady-Glo based luciferase assay. It counts as functional, cell-based. (In a reporter assay the amount or activity of a reporter protein is the signal.)

The target in data set [2] is T2, G-protein coupled bile acid receptor 1 (Mus musculus, UniProt Q80SS6).
T2 sequence (Q80SS6 whole entry): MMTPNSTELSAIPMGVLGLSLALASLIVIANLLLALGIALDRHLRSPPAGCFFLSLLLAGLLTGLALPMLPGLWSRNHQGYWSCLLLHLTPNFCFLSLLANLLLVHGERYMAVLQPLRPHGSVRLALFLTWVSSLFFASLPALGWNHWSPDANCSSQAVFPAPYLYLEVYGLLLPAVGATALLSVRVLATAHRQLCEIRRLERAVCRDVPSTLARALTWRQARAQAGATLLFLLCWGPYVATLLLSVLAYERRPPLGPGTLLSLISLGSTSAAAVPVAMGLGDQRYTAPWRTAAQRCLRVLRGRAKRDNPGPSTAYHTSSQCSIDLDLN
The data set can be described thus: Agonist activity at mouse TGR5 expressed in human HEK293 cells co-expressing CRE-driven luciferase reporter gene assessed as luciferase activity incubated for 5.5 hrs by Steady-Glo based luciferase assay. It counts as functional, cell-based.

Another data set has as its target Dipeptidyl peptidase 4 (Mus musculus, UniProt P28843). The data set can be described thus: Inhibition of mouse serum DPP4 assessed as cleavage of substrate by measuring AMC release using Gly-Pro-AMC as substrate by fluorescence based microplate reader assay. Type of data set: cell-free.
The nature of data set [3]: Water solubility at pH 6.8. It counts as physicochemical.

The structures appear in SMILES notation.

Dipeptidyl peptidase 4, sequence (P28843 whole entry): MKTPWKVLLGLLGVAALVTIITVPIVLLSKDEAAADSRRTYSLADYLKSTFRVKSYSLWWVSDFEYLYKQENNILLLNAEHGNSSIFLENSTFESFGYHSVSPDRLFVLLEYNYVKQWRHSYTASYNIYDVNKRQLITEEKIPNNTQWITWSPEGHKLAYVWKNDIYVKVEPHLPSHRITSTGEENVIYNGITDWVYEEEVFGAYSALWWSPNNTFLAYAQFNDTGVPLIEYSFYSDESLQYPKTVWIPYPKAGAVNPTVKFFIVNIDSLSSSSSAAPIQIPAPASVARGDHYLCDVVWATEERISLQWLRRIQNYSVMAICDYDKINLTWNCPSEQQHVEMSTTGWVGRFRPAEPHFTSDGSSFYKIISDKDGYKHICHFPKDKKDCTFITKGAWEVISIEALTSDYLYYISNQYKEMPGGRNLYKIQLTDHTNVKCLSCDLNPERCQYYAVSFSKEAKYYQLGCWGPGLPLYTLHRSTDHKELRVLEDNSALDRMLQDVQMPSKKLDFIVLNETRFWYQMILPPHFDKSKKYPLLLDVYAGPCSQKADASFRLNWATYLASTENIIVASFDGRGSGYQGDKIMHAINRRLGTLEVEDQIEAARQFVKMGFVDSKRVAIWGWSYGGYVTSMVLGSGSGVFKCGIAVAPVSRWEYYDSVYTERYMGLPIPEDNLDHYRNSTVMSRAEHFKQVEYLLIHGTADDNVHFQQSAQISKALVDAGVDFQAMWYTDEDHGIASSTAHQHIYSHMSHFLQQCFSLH

Take `O=C(O)CCc1cc(Cl)c(Oc2ccsc2C(=O)N2CCN(C3CC3)c3ccccc32)cc1Cl`: the values for the EC50 in data set [1] and in data set [2] were 11.2 nM and 10.5 nM, respectively. In addition, the IC50 (commonly the midpoint of a concentration-inhibition curve) at Dipeptidyl peptidase 4 was over 10000 nM.
The corresponding values for `CC1C(=O)NCCCN1C(=O)C[C@H](N)Cc1cc(F)c(F)cc1F` (mixture of isomers) are over 1000 nM, over 1000 nM and 10.4 nM.
For the compound `CC1C(=O)N(CC(=O)NCCOCCOCCOCCOCCOCCOCCOCCOCCNC(=O)CCc2cc(Cl)c(Oc3ccsc3C(=O)N3CCN(C4CC4)c4ccccc43)cc2Cl)CCCN1C(=O)C[C@H](N)Cc1cc(F)c(F)cc1F` (mixture of isomers), the concentration giving a half-maximal response (EC50) – broadly, the concentration that produces a half-maximal response – in data set [1] turned out to be 3.2 nM; in data set [2], 2.4 nM. The IC50 at Dipeptidyl peptidase 4 came to 64.8 nM. Further, the solubility (as a rule, the dissolved amount per volume that the medium holds) in data set [3] was 50 µM.
As to `N[C@@H](CC(=O)N1CCCNC(=O)C1Cc1ccccc1)Cc1cc(F)c(F)cc1F` (mixture of isomers), on Dipeptidyl peptidase 4, the IC50 amounted to 0.8 nM.
As for `N[C@@H](CC(=O)N1CCCN(CC(=O)NCCOCCOCCOCCNC(=O)CCc2cc(Cl)c(Oc3ccsc3C(=O)N3CCN(C4CC4)c4ccccc43)cc2Cl)C(=O)C1Cc1ccccc1)Cc1cc(F)c(F)cc1F` (mixture of isomers), the EC50 in data set [1] was 6.1 nM; in data set [2], 3.7 nM. The IC50 at Dipeptidyl peptidase 4 came out at 113 nM. The compound further showed a solubility in data set [3] of 10 µM.
For `CC1C(=O)N(CC(=O)NCCOCCOCCOCCOCCOCCOCCNC(=O)CCc2cc(Cl)c(Oc3ccsc3C(=O)N3CCN(C4CC4)c4ccccc43)cc2Cl)CCCN1C(=O)C[C@H](N)Cc1cc(F)c(F)cc1F.F` (mixture of isomers), the EC50 in data set [1] amounted to 2.8 nM; in data set [2], 2.3 nM. The IC50 on Dipeptidyl peptidase 4 came out at 60.1 nM. The compound further registered a solubility in data set [3] of 50 µM.
Regarding `C.N[C@@H](CC(=O)N1CCCN(CC(=O)NCCOCCOCCOCCOCCOCCOCCOCCOCCNC(=O)CCc2cc(Cl)c(Oc3ccsc3C(=O)N3CCN(C4CC4)c4ccccc43)cc2Cl)C(=O)C1Cc1ccccc1)Cc1cc(F)c(F)cc1F` (mixture of isomers), the EC50 was 3.8 nM in data set [1] and 2.3 nM in data set [2]. Besides, at Dipeptidyl peptidase 4, the IC50 worked out at 104 nM.
Turning to `CC1C(=O)N(CC(=O)NCCOCCOCCOCCOCCOCCNC(=O)CCc2cc(Cl)c(Oc3ccsc3C(=O)N3CCN(C4CC4)c4ccccc43)cc2Cl)CCCN1C(=O)C[C@H](N)Cc1cc(F)c(F)cc1F` (mixture of isomers), the 50% effective concentration (EC50) in data set [1] came to 2.5 nM; in data set [2] it was 2.3 nM. The IC50 on Dipeptidyl peptidase 4 stood at 57.5 nM. The compound also showed a solubility in data set [3] of 50 µM.
`CC1C(=O)N(CC(=O)NCCOCCOCCOCCNC(=O)CCc2cc(Cl)c(Oc3ccsc3C(=O)N3CCN(C4CC4)c4ccccc43)cc2Cl)CCCN1C(=O)C[C@H](N)Cc1cc(F)c(F)cc1F` (mixture of isomers): the EC50 in data set [1] turned out to be 4.5 nM; in data set [2], 4.3 nM. Further, at Dipeptidyl peptidase 4, the 50% inhibitory concentration (IC50) was 119 nM.
As to `CC1C(=O)N(CC(=O)NCCOCCOCCOCCOCCOCCOCCOCCNC(=O)CCc2cc(Cl)c(Oc3ccsc3C(=O)N3CCN(C4CC4)c4ccccc43)cc2Cl)CCCN1C(=O)C[C@H](N)Cc1cc(F)c(F)cc1F` (mixture of isomers), the figures for the EC50 in data set [1] and in data set [2] were 2.8 nM and 2.1 nM, respectively. For the same compound, the IC50 on Dipeptidyl peptidase 4 was 54.8 nM. This compound also showed a solubility in data set [3] of 50 µM.
The corresponding values for `N[C@@H](CC(=O)N1CCCN(CC(=O)NCCOCCOCCOCCOCCOCCNC(=O)CCc2cc(Cl)c(Oc3ccsc3C(=O)N3CCN(C4CC4)c4ccccc43)cc2Cl)C(=O)C1Cc1ccccc1)Cc1cc(F)c(F)cc1F` (mixture of isomers) are 4.9 nM, 2.7 nM, 124 nM and 10 µM.
For `CC1C(=O)N(CC(=O)NCCN(C)C(=O)CCc2cc(Cl)c(Oc3ccsc3C(=O)N3CCN(C4CC4)c4ccccc43)cc2Cl)CCCN1C(=O)C[C@H](N)Cc1cc(F)c(F)cc1F` (mixture of isomers), the 50% effective concentration (EC50) amounted to 14.9 nM in data set [1] and 6 nM in data set [2]. Moreover, the IC50 at Dipeptidyl peptidase 4 is 224 nM.

The values are drawn from ChEMBL document CHEMBL5338718, “Design and exploration of gut-restricted bifunctional molecule with TGR5 agonistic and DPP4 inhibitory effects for treating ulcerative colitis” (Eur J Med Chem, 2022).
